From BindingDB's records for doi:10.1039/d0md00137f (University of Regensburg, 2020)

Biological target: Muscarinic acetylcholine receptor M2 (Homo sapiens) (UniProt P08172)
Experiment: Displacement of [3H]NMS from human recombinant muscarinic receptor M2 expressed in […] cell membranes measured after 3 hrs by radioligand competition binding assay

SMILES: Cc1cc(/C=C/C=C/c2ccc(N(C)C)cc2)cc(C)[n+]1CCN1CCN(CCCCC2CCN(CC(=O)N3c4ccccc4NC(=O)c4ccccc43)CC2)CC1
- Ki: 3 nM

SMILES: NCCNC(=O)CCc1cn(CCCCC2CCN(CC(=O)N3c4ccccc4NC(=O)c4ccccc43)CC2)cn1
- Ki: 0.589 nM
